From patent publication US5294605A, “Amphiphilic peptide compositions and analogues thereof” (The Scripps Research Institute, priority 1991, dated 1994)
“And” between values parts separate entries of the source, which are not always exact repeats. Identical values can stand only once. Like-named read-outs stand apart in the source and are kept apart here. Ends that are not written are not given here.

Tests used:
Type in all cases: cell-based
E. coli ATCC 25922 = assay: Antibacterial assay, NCCLS M7-T2 microdilution (Example 15), MIC; details: Table XI; Mueller Hinton broth, 16-20 hours 37° C., 1-5×10^5 CFUs/ml
Procedure: (§1) The procedure for the following antibacterial assay is based upon the guidelines of the National Committee for Clinical Laboratory Standards, Document M7-T2, Volume 8, No. 8, 1988.
(§2) Stock solutions of the following Peptides (SEQ ID NO:4) and (SEQ ID NO:64) through (SEQ ID NO:68) in accordance with the present invention are prepared at a concentration of 512 μg/ml in sterile deionized distilled water and stored at -70° C.
(§3) The stock peptide solution was diluted in serial dilutions (1:2) down the wells of a microtiter plate so that the final concentrations of peptides in the wells were 0.25, 0.50, 1, 2, 4, 8, 16, 32, 64, 128, and 256 μg/ml. 1-5×10^5 CFUs/ml of either S. aureus ATCC 25923, E. coli ATCC 25922, or P. aeruginosa ATCC 27853 were added to the wells in full strength Mueller Hinton broth (BBL 11443) from a mid-log culture. The inoculum is standarized spectrophotometrically at 600 nm and is verified by colony counts. […] Minimal inhibitory concentration is defined as the lowest concentration of peptide which produces a clear well in the microtiter plate.
(§4) For purposes of explanation of Table XI below, S is the MIC of the peptide against S. aureus, P is the MIC of the peptide against P. aeruginosa, and E is the MIC of the peptide against E. coli.

P. aeruginosa ATCC 27853 = assay: as above; details: Table XI; Mueller Hinton broth, 16-20 hours 37° C., 1-5×10^5 CFUs/ml
Procedure: as §1, §2, §3, §4

S. aureus ATCC 25923 = assay: as above; details: Table XI; Mueller Hinton broth, 16-20 hours 37° C., 1-5×10^5 CFUs/ml
Procedure: as §1, §2, §3, §4

Escherichia coli [1] = details: Table I; 100 percent growth inhibition, 20 hours, 1.0×10^6 CFU/ml, LB medium
Procedure: (§5) For the following Examples 3-9, antimicrobial assays were carried out in 96-well tissue culture plates. Each well was incubated with a given microorganism (Escherichia coli, Staphylococcus epidermidis, or Pseudomonas aeruginosa) suspended in LB medium. Upon the addition of the parent peptide having the structural formula hereinabove described, or its substitution analogues, or of Peptide I (dissolved in 1 X PBS, pH 7.0) each well contained a final cell density of 1.0×10^6 colony forming units (CFU)/ml. The final peptide concentrations ranged from 1.5 μg/ml to greater than 100 μg/ml.
(§6) Addition of peptides to the wells was defined as time zero. At twenty hours, the plates were placed in a Titertek Multiskan apparatus and the O.D.620 determined. The plates as well as the initial innoculum were incubated at 37° C.
(§7) Five wells per plate contained media alone, while five others contained medium plus cells. These controls were used to eliminate the possibility of media contamination while providing a measure of uninhibited growth of the microorganisms.
(§8) The degree of peptide activity was determined by comparing the substitution analogues with uninhibited growth of the control cells over a twenty-hour period.
(§9) as hereinabove described and analogues thereof wherein a methionine sulfoxide residue was substituted for various amino acid residues of the parent peptide were prepared as hereinabove described in Example 1 and tested for minimum inhibitory concentration with respect to E. coli, P. aeruginosa, and S. epidermidis at a concentration given in μg/ml, and for percent hemolysis of human red blood cells as hereinabove described in Example 2. The minimum inhibitory concentration and percent hemolysis (at a concentration of 100 μg/ml) are listed below in Table I. As used herein, the heading "Amino Acid Residue Substituted" refers to the number of the amino acid residue in the peptide which is substituted with a desired amino acid residue. All other residues remain the same as that of the normal peptide sequence. The term "Minimum Inhibitory Concentration" (MIC) as used herein indicates the minimum concentration of peptide in μg/ml needed to achieve 100 percent effective growth inhibition of the organism.

Pseudomonas aeruginosa [2] = details: Table I; 100 percent growth inhibition, 20 hours, 1.0×10^6 CFU/ml, LB medium
Procedure: as §5, §6, §7, §8, §9

[3] = test system: Staphylococcus epidermidis; assay: Antimicrobial assay in 96-well plates, LB medium (Example 2), MIC; details: Table I, 100 percent growth inhibition, 20 hours, 1.0×10^6 CFU/ml
Escherichia coli [4] = assay: Antimicrobial assay for deletion analogues (Example 10), MIC; details: Table VII; 1.3×10^5 CFU/ml, 20 hours, LB medium
Procedure: (§10) For the deletion analogues of the parent peptide further described in Examples 11 and 12, antimicrobial assays were carried out in 96-well tissue culture plates. Each well was incubated with a given microorganism (Escherichia coli, Staphylococcus epidermidis, Pseudomonas aeruginosa, or Staphylococcus aureus) suspended in LB medium. Upon addition of the parent peptide or its deletion analogues (dissolved in 1×PBS<pH7.0), each well contained a final cell density of 1.3×10^5 colony forming units (CFU)/ml of E. coli, or 3.5×10^5 CFU/ml P.aeruginosa, or 3.9×10^5 CFU/ml S. Aureus or 3.0×10^5 CFU/ml S. epidermidis. The final peptide concentrations ranged from 1.5 μg/ml to greater than 100 μg/ml. Addition of peptide to the wells was defined as time zero. At twenty hours, the plates were placed in a Titertek Multiskan apparatus and the O.D. 620 determined. The plates as well as the initial innoculum were incubated at 37° C. Five wells per plate contained medium alone, whereas five others contained medium plus cells. These controls were used to eliminate the possibility of medium contamination, while providing a measure of uninhibited growth of the microorganisms. The degree of peptide activity was determined by comparing the deletion analogues with uninhibited growth of the control cells over a twenty-hour period. The effective growth inhibitation of the deletion analogues is listed in the examples and tables below.

Pseudomonas aeruginosa [5] = assay: as above; details: Table VII; 3.5×10^5 CFU/ml, 20 hours, LB medium
Procedure: as §10

Staphylococcus aureus = assay: as above; details: Table VII; 3.9×10^5 CFU/ml, 20 hours, LB medium
Procedure: as §10

[6] = test system: Staphylococcus epidermidis; assay: as above; details: Table VII; 3.0×10^5 CFU/ml, 20 hours, LB medium
Procedure: as §10

Substance | MIC E (E. coli) (E. coli ATCC 25922) [µg/mL] | MIC P (P. aeruginosa) (P. aeruginosa ATCC 27853) | MIC S (S. aureus) (S. aureus ATCC 25923) [µg/mL] | Minimum Inhibitory Concentration E. coli (Escherichia coli [1]) [µg/mL] | Minimum Inhibitory Concentration P. Aeruginosa (Pseudomonas aeruginosa [2]) [µg/mL] | Minimum Inhibitory Concentration S. epidermidis [3] [µg/mL] | Minimum Inhibitory Concentration E. coli (Escherichia coli [4]) [µg/mL] | Minimum Inhibitory Concentration P. Aeruginosa (Pseudomonas aeruginosa [5]) [µg/mL] | Minimum Inhibitory Concentration S. aureus (Staphylococcus aureus) [µg/mL] | Minimum Inhibitory Concentration S. epidermidis [6] [µg/mL]
Ac-LKKLLKKLKKLLKKL-NH2 [X-(SEQ ID NO: 66) --NH2] | 8 | 16 µg/mL | 8 | – | – | – | – | – | – | –
LLKKLKKLLKKLLKLL-NH2 [(SEQ ID NO: 4) --NH2] | 32 | 64 µg/mL | 32 | – | – | – | – | – | – | –
Ac-LKLLKKLLKKLKKLLKKL-NH2 [None (parent)] | – | – | – | 10 | 75 | 2.5 | 10 | 75 | 128 | 2.5
Ac-KKLLKKLKKLLKKL-NH2 [X-(SEQ ID NO: 65) --NH2] | 32 | 16 µg/mL and 32 µg/mL | 16 | – | – | – | – | – | – | –
Ac-LLKKLKKLLKKLLKLL-NH2 [X-(SEQ ID NO: 4) --NH2] | 32 | 64 µg/mL | 32 | – | – | – | – | – | – | –
Ac-LKLLKKLLKKGKKLLKKL-NH2 [X-(SEQ ID NO: 68) --NH2] | 16 | 8 µg/mL | 8 | – | – | – | – | – | – | –
